From ChEMBL document CHEMBL2346568, “Discovery and structure-activity relationship of thienopyridine derivatives as bone anabolic agents” (Bioorg Med Chem, 2013) come the findings set out here.

One may read the bioavailability as the share of a dose that reaches the circulation, judged against a reference dose that is usually intravenous. A word on the Cmax: it is the peak of the concentration-time curve. The AUC is the area under the concentration-time curve, a measure of exposure. A higher AUC goes with more exposure. The clearance is the volume of plasma or blood freed of the substance per unit of time. A higher clearance goes with a high capacity for elimination. In general, CL/F refers to clearance divided by bioavailability, as obtained after extravascular dosing. In general, half-life refers to the time needed for the level to fall by half in the phase considered. A high value points to slow decline. For orientation: share remaining means the share of the starting amount still present when the sample was taken.

Data set [1] is described as follows: Induction of osteoblastic differentiation in mouse ST2 cells assessed as increase in alkaline phosphatase activity after 4 days by lowry method. Format: functional.
A short description of data set [2]: Induction of osteoblastic differentiation in mouse ST2 cells assessed as increase in alkaline phosphatase activity at 0.30 ug/ml after 4 days by lowry method. Format: functional.
The nature of data set [3]: Oral bioavailability in F344 rat at 25 mg/kg. Format: ADME, organism-based. Conditions: in vivo.
The test system of data set [4] is Rattus norvegicus. Nature of the data set: Bone anabolic effect in ovariectomized F344 rat postmenopausal osteoporosis model assessed as increase in serum osteocalcin level at 60 mg/kg, po bid for 6 weeks by ELISA. Format: functional, organism-based. Also on record: dose 60 mg/kg.
Data set [5] in a line: Cmax in F344 rat at 25 mg/kg, po. More on the design: dose 25 mg/kg, route oral. Format: ADME, organism-based. Conditions: in vivo.
In data set [6] the test system is Rattus norvegicus. Nature of the data set: Bone anabolic effect in ovariectomized F344 rat postmenopausal osteoporosis model assessed as increase in areal bone mineral density of distal femur at 60 mg/kg, po bid for 6 weeks by dual energy X-ray absorptiometry. More on the design: dose 60 mg/kg. Format: functional, organism-based.
Data set [7] relates to Rattus norvegicus. Nature of the data set: Bone anabolic effect in ovariectomized F344 rat postmenopausal osteoporosis model assessed as increase in areal bone mineral density of femoral diaphyses at 60 mg/kg, po bid for 6 weeks by dual energy X-ray absorptiometry. Format: functional, organism-based. Also on record: dose 60 mg/kg.
Data set [8] can be described thus: AUC in F344 rat at 2 mg/kg, iv. More on the design: dose 2 mg/kg, route intravenous. Format: ADME, organism-based. Conditions: plasma.
Data set [9] concerns Rattus norvegicus. Nature of the data set: Bone anabolic effect in ovariectomized F344 rat postmenopausal osteoporosis model assessed as increase in areal bone mineral density of proximal tibiae at 60 mg/kg, po bid for 6 weeks by dual energy X-ray absorptiometry. Format: functional, organism-based. Also on record: dose 60 mg/kg.
For data set [10], the system named is Rattus norvegicus. Nature of the data set: Volume of distribution in F344 rat at 25 mg/kg, po. Format: ADME, organism-based. More on the design: dose 25 mg/kg, route oral. The settings on record: in vivo.
A short description of data set [11]: AUC in F344 rat at 25 mg/kg, po. The settings on record: plasma. Format: ADME, organism-based. More on the design: dose 25 mg/kg, route oral.
A short description of data set [12]: Volume of distribution in F344 rat at 2 mg/kg, iv. Format: ADME, organism-based. Also on record: dose 2 mg/kg, route intravenous. Conditions: in vivo.
The test system of data set [13] is Rattus norvegicus. Nature of the data set: Bone anabolic effect in ovariectomized F344 rat postmenopausal osteoporosis model assessed as increase in areal bone mineral density of distal femur at 10 to 30 mg/kg, po qd for 6 weeks by dual energy X-ray absorptiometry. Format: functional, organism-based.
The nature of data set [14]: Clearance in F344 rat at 2 mg/kg, iv. The settings on record: in vivo.
Data set [15] in a line: Clearance in F344 rat at 25 mg/kg, po. Conditions: in vivo.
Data set [16] in a line: Half life in F344 rat at 25 mg/kg, po. The settings on record: in vivo.
A short description of data set [17]: Half life in F344 rat at 2 mg/kg, iv. Conditions: in vivo.
The test system of data set [18] is Rattus norvegicus. Nature of the data set: Bone anabolic effect in ovariectomized F344 rat postmenopausal osteoporosis model assessed as increase in serum osteocalcin level at 10 to 30 mg/kg, po qd for 6 weeks by ELISA. Format: functional, organism-based. (An ELISA detects its analyte on a solid surface through an enzyme-linked reagent.)
Data set [19] deals with Rattus norvegicus. Nature of the data set: Bone anabolic effect in ovariectomized F344 rat postmenopausal osteoporosis model assessed as increase in areal bone mineral density of femoral diaphyses at 10 to 30 mg/kg, po qd for 6 weeks by dual energy X-ray absorptiometry. Format: functional, organism-based.
Data set [20] in a line: in vitro. The settings on record: rat, liver microsomes.
The subject of data set [21] is Rattus norvegicus. Nature of the data set: Bone anabolic effect in ovariectomized F344 rat postmenopausal osteoporosis model assessed as increase in areal bone mineral density of proximal tibiae at 10 to 30 mg/kg, po qd for 6 weeks by dual energy X-ray absorptiometry. Format: functional, organism-based.

Each structure is given as a SMILES string. Activity calls are given as the source filed them. Where only a bound is given, the exact number is not on record here.

In the case of `COc1ccc(N2CCCN(c3ccnc4sc(C(N)=O)c(N)c34)CC2)cc1`, in data set [1], the EC200 is 0.035 µg/mL.
Turning to `CN1CCN(c2ccnc3sc(C(N)=O)c(N)c23)CC1`, in data set [2], the Activity was found to be 117%.
Turning to `NC(=O)c1sc2nccc(N3CCCN(c4ccncc4)CC3)c2c1N`, the EC200 in data set [1] came to 0.091 µg/mL.
Take `CCOC(=O)c1ccc(N2CCCN(c3ccnc4sc(C(N)=O)c(N)c34)CC2)cc1`: the EC200 in data set [1] was 0.193 µg/mL.
For `NC(=O)c1sc2nccc(N3CCCC3)c2c1N`, the EC200 in data set [1] was determined as 0.29 µg/mL.
Regarding `CN(C)c1ccnc2sc(C(N)=O)c(N)c12`, the bioavailability in [3] was found to be 87%. Moreover, the result in [4], in [6], in data set [7] and in data set [9] was Active. Also, the EC200 in data set [1] stood at 0.17 µg/mL. Moreover, in [5], the concentration peaked (Cmax) at 5590 ng/mL. Also, the AUC turned out to be 870 ng·h/mL in data set [8] and 9400 ng·h/mL in data set [11]. Besides, the Vd in data set [10] is 3.1 L/kg; in [12], 1.1 L/kg.
On to `NC(=O)c1sc2nccc(N3CCCN(c4ccc(C(=O)O)cc4)CC3)c2c1N`, for which the EC200 in data set [1] is above 1 µg/mL.
Consider `NC(=O)c1sc2nccc(N3CCCN(c4ccccc4)CC3)c2c1N`, for which the bioavailability in data set [3] was 71%. Further, the result in [13], in data set [18], in [19] and in [21] was Active. Moreover, in data set [1], the EC200 came out at 0.051 µg/mL. Further, the clearance in data set [14] turned out to be 29 mL/min/kg. Also, the apparent clearance (CL/F) in data set [15] was determined as 34 mL/min/kg. Also, the half-life in data set [16] was 3.22 h; in [17], 2.77 h. For the same compound, the Cmax in data set [5] was 2540 ng/mL. Further, the exposure (AUC) stood at 1100 ng·h/mL in data set [8] and 9500 ng·h/mL in data set [11]. In addition, the Vd is 8.1 L/kg in data set [10] and 4.2 L/kg in data set [12]. In [20], this compound came in with an amount remaining at 0.5 h of 71%.
As for `CCCNc1ccnc2sc(C(N)=O)c(N)c12`, the Activity in data set [2] came to 134%.
As for `Cc1ccc(N2CCCN(c3ccnc4sc(C(N)=O)c(N)c34)CC2)cc1`, in data set [1], the EC200 was 0.044 µg/mL.
Consider `NC(=O)c1sc2nccc(N3CCCN(c4ccc(F)cc4)CC3)c2c1N`, for which, in [1], the EC200 worked out at 0.082 µg/mL.
Consider `NC(=O)c1sc2nccc(N3CCCN(c4nccs4)CC3)c2c1N`, for which, in [1], the EC200 worked out at 0.036 µg/mL.
On to `NC(=O)c1sc2nccc(N3CCCCC3)c2c1N`, for which the EC200 in [1] is 0.067 µg/mL. The compound also displayed a share remaining at 0.5 h in [20] of 2%.
As to `Cc1ccccc1N1CCCN(c2ccnc3sc(C(N)=O)c(N)c23)CC1`, the EC200 in data set [1] is above 1 µg/mL.
As for `CC(C)Oc1ccc(N2CCCN(c3ccnc4sc(C(N)=O)c(N)c34)CC2)cc1`, in data set [1], the EC200 was above 1 µg/mL.
`NC(=O)c1sc2nccc(N3CCN(c4ccccc4)CC3)c2c1N`: the EC200 in data set [1] was determined as 0.1 µg/mL. In data set [20], this compound returned a share remaining at 0.5 h of 91%.
With `NC(=O)c1sc2nccc(N3CCOCC3)c2c1N`, the EC200 in [1] turned out to be 0.44 µg/mL. Moreover, the fraction remaining at 0.5 h in data set [20] is 82%.
Turning to `NC(=O)c1sc2nccc(N3CCCN(c4ccccn4)CC3)c2c1N`, the EC200 in data set [1] came out at 0.059 µg/mL.
On the same count and under the same terms, next, `CN(C)C(=O)c1ccc(N2CCCN(c3ccnc4sc(C(N)=O)c(N)c34)CC2)cc1`: 0.014 µg/mL.
For `Cc1cccc(N2CCCN(c3ccnc4sc(C(N)=O)c(N)c34)CC2)c1`, in data set [1], the EC200 stood at 0.074 µg/mL.
For `CCCN(CCC)c1ccnc2sc(C(N)=O)c(N)c12`, the Activity in data set [2] turned out to be 110%.
As to `N#Cc1ccc(N2CCCN(c3ccnc4sc(C(N)=O)c(N)c34)CC2)cc1`, the EC200 in data set [1] is 0.099 µg/mL.
As to `CC(C)(C)c1ccc(N2CCCN(c3ccnc4sc(C(N)=O)c(N)c34)CC2)cc1`, the EC200 in data set [1] turned out to be 0.27 µg/mL.
Turning to `CN(C)C(=O)Cc1ccc(N2CCCN(c3ccnc4sc(C(N)=O)c(N)c34)CC2)cc1`, the EC200 in data set [1] worked out at 0.003 µg/mL.
On to `NC(=O)c1sc2nccc(NC3CCCCC3)c2c1N`, for which, in data set [1], the EC200 turned out to be 0.24 µg/mL.
Take `NC(=O)c1ccc(N2CCCN(c3ccnc4sc(C(N)=O)c(N)c34)CC2)cc1`: the EC200 in [1] is 0.079 µg/mL.
As to `NC(=O)c1sc2nccc(N3CCNCC3)c2c1N`, the Activity in data set [2] is on record as 105%.
As to `CNC(=O)c1ccc(N2CCCN(c3ccnc4sc(C(N)=O)c(N)c34)CC2)cc1`, the EC200 in data set [1] stood at 0.023 µg/mL.
